Source: ChEMBL document CHEMBL3611975, “New carbocyclic N(6)-substituted adenine and pyrimidine nucleoside analogues with a bicyclo[2.2.1]heptane fragment as sugar moiety; synthesis, antiviral, anticancer activity and X-ray crystallography” (Bioorg Med Chem, 2015)

Key:
[1] = Cytotoxicity against African green monkey Vero cells assessed as cell viability after 72 hrs by MTT assay; assay type: cell-based; conditions: chlorocebus sabaeus, read-out: CTD50
[2] = Selectivity index, ratio of CTD50 for MDCK cells to EC50 for Influenza A virus (A/Puerto Rico/8/1934(H1N1)); assay type: toxicity, cell-based; conditions: dog
[3] = Cytotoxicity against MDCK cells assessed as cell viability after 48 hrs by MTT assay; assay type: cell-based, Canis lupus familiaris; conditions: dog, read-out: CTD50
Coxsackievirus B4 = assay: Antiviral activity against Human coxsackievirus B4 Powers infected in African green monkey Vero cells assessed as decrease in virus titer after 72 hrs by MTT assay; assay type: functional, organism-based; conditions: Enterovirus B
[4] = Selectivity index, ratio of CTD50 for African green monkey Vero cells to EC50 for Human coxsackievirus B4 Powers; assay type: toxicity, cell-based
Influenza A virus = assay: Antiviral activity against Influenza A virus (A/Puerto Rico/8/1934(H1N1)) infected in MDCK cells assessed as decrease in virus titer after 48 hrs by MTT assay; assay type: functional, organism-based

SMILES | CC50 at 72 h [1] | selectivity ratio [2] | CC50 at 48 h [3] | EC50 (Coxsackievirus B4) | selectivity ratio [4] | EC50 (Influenza A virus)
Nc1ncnc2c1ncn2[C@H]1C[C@H]2[C@H](CO)[C@@H]1C[C@@H]2Cl | 332 µM | > 150 | > 1120 µM | > 112 µM | 3 | 8 µM
CN(C)c1ncnc2c1ncn2[C@H]1C[C@H]2[C@H](CO)[C@@H]1C[C@@H]2Cl | 235 µM | 8 | 929 µM | 28 µM | 9 | 112 µM
OC[C@H]1[C@@H]2C[C@H](n3cnc4c(NC5CC5)ncnc43)[C@H]1C[C@@H]2Cl | 247 µM | 151 | 1130 µM | 17 µM | 15 | 8 µM
OC[C@H]1[C@@H]2C[C@H](n3cnc4c(NC5CCCC5)ncnc43)[C@H]1C[C@@H]2Cl | 27 µM | 36 | 529 µM | > 30 µM | 1 | 15 µM
CCN(CC)CCCNc1ncnc2c1ncn2[C@H]1C[C@H]2[C@H](CO)[C@@H]1C[C@@H]2Cl | 137 µM | < 3 | 664 µM | > 81 µM | 2 | > 245 µM
CN1CCN(c2ncnc3c2ncn3[C@H]2C[C@H]3[C@H](CO)[C@@H]2C[C@@H]3Cl)CC1 | 227 µM | 39 | 1000 µM | > 87 µM | 3 | 25 µM
OC[C@H]1[C@@H]2C[C@H](n3cnc4c(N5CCOCC5)ncnc43)[C@H]1C[C@@H]2Cl | 97 µM | 54 | 997 µM | > 90 µM | 1 | 19 µM
OC[C@H]1[C@@H]2C[C@H](n3cnc4c(NC5CCCCC5)ncnc43)[C@H]1C[C@@H]2Cl | 14 µM | 6 | 528 µM | > 11 µM | 1 | 91 µM
CCN(CC)CCNc1ncnc2c1ncn2[C@H]1C[C@H]2[C@H](CO)[C@@H]1C[C@@H]2Cl | 175 µM | 36 | 731 µM | > 84 µM | 2 | 20 µM
OC[C@H]1[C@@H]2C[C@H](n3cnc4c(NCCc5ccc(O)cc5)ncnc43)[C@H]1C[C@@H]2Cl | 108 µM | > 16 | > 795 µM | 18 µM | 6 | 48 µM
OC[C@@H](Cc1ccccc1)Nc1ncnc2c1ncn2[C@H]1C[C@H]2[C@H](CO)[C@@H]1C[C@@H]2Cl | 197 µM | 3 | 410 µM | 1 µM | 141 | 131 µM
OC[C@H]1[C@@H]2C[C@H](n3cnc4c(NCc5cccnc5)ncnc43)[C@H]1C[C@@H]2Cl | 204 µM | 5 | 554 µM | > 86 µM | 2 | 122 µM
OC[C@H]1[C@@H]2C[C@H](n3cnc4c(NCc5ccncc5)ncnc43)[C@H]1C[C@@H]2Cl | 166 µM | 3 | 712 µM | > 84 µM | 2 | 250 µM
CN1CCN(Nc2ncnc3c2ncn3[C@H]2C[C@H]3[C@H](CO)[C@@H]2C[C@@H]3Cl)CC1 | 255 µM | 73 | 840 µM | > 255 µM | 1 | 12 µM
CCN(CC)c1ncnc2c1ncn2[C@H]1C[C@H]2[C@H](CO)[C@@H]1C[C@@H]2Cl | 182 µM | 18 | 385 µM | > 94 µM | 2 | 22 µM
OC[C@@H]1[C@@H]2C[C@H](Cl)[C@H]1C[C@@H]2Nc1ncnc2c1ncn2[C@H]1C[C@H]2[C@H](CO)[C@@H]1C[C@@H]2Cl | 213 µM | > 73 | > 704 µM | 61 µM | 3 | 10 µM
Cc1cn([C@H]2C[C@H]3[C@H](CO)[C@@H]2C[C@@H]3Cl)c(=O)[nH]c1=O | 57 µM | > 3 | > 1160 µM | > 352 µM | 1 | 352 µM
O=c1ccn([C@H]2C[C@H]3[C@H](CO)[C@@H]2C[C@@H]3Cl)c(=O)[nH]1 | 172 µM | > 19 | > 1210 µM | > 367 µM | 1 | 64 µM
